# Reference: patent US6353020B1, “Fungicidal compositions containing N-acetonylbenzamides” (Dow AgroSciences LLC, priority 1998, dated 2002)
# Read-outs that look alike come from different tables or passages of the source.
# Tests used:
# [1] = tested on: Phytophthora capsici (ATCC 15399); assay: In vitro test to control Phytophthora capsici (colony growth inhibition on potato dextrose agar); format: cell-based
# [2] = tested on: Phytophthora capsici (ATCC 15399); assay: as above; format: cell-based; remark: listed apart in the source
# Description: (§1) Dilution series of Compounds A and B were prepared in dimethylsulfoxide (DMSO), and aliquots added to 25 ml of molten potato dextrose agar at 50° C. to give the appropriate concentrations shown in the table below. Immediately after adding the compound(s), the molten agar was poured into 9-cm diameter petri plates and allowed to harden. The final concentration of DMSO in all plates was 0.5%. Control plates contained DMSO but neither compound. Plates were inoculated in the center with 1 μl of a suspension of Phytophthora capsici (ATCC 15399, obtainable from the American Type Culture Collection, Rockville, Md., U.S.A) zoospores containing 5×10^5 zoospores per milliliter. Three replicate plates were used for each treatment. Fungal colony diameters were measured after growth for 7 days at 25° C., and two measurements were taken from each plate. Inhibition of growth was calculated by comparing growth in the treatments with compound A and/or B with growth in the controls. Degree of inhibition (observed) is expressed as a percentage in Table 1a. The predicted % inhibition in treatments containing both A and B was calculated using the Colby Formula.
# as §1, with “B′” for “B”, “(Observed)” for “(observed)”, “1b.” for “1a.”, “Formula, which is known to those skilled in the art (R. S. Colby, Weeds 15, 20-22 (1967)).” for “Formula.”
# [3] = Phytophthora capsici, ATCC15399, read-out: % Inhibition (Observed)
compound,measurement,setting,value
"COCC(=O)N(c1c(C)cccc1C)C(C)C(=O)OC (racemic) [Compound B′, racemic mixture of Metalaxyl, reference compound]",% Inhibition (Observed),"[1]; Table 1b, Compound B′ 0.6 ppm alone, 7 days at 25° C.",35.1%
same,% Inhibition (Observed),"[1]; Table 1b, Compound B′ 0.9 ppm alone, 7 days at 25° C.",48.0%
"COCC(=O)N(c1c(C)cccc1C)[C@H](C)C(=O)OC (single isomer, unassigned) [Compound B, R-Enantiomer of Metalaxyl, reference compound]",% Inhibition (Observed),"[2]; Table 1a, Compound B 0.25 ppm alone, 7 days at 25° C.",17.9%
same,% Inhibition (Observed),"[2]; Table 1a, Compound B 0.75 ppm alone, 7 days at 25° C.",57.6%
same,% Inhibition (Observed),"[1]; Table 1a, Compound B 0.5 ppm alone, 7 days at 25° C.",56.0%
"CCC(C)(NC(=O)c1cc(Cl)c(C)c(Cl)c1)C(=O)CCl (stereo not shown) [Compound A, N-[3′-(1′-chloro-3′-methyl-2′-oxopentan)]-3,5-dichloro-4-methylbenzamide]",% Inhibition (Observed),"[2]; Table 1b, Compound A 0.04 ppm alone",31.0%
same,% Inhibition (Observed),"[2]; Table 1b, Compound A 0.08 ppm alone",47.2%
same,% Inhibition (Observed),"[2]; Table 1b, Compound A 0.16 ppm alone",55.2%
same,% Inhibition (Observed),"[1]; Table 1a, Compound A 0.1 ppm alone, 7 days at 25° C.",29.0%
same,% Inhibition (Observed),"[1]; Table 1b, Compound A 0.12 ppm alone",52.3%
same,% Inhibition (Observed),"[1]; Table 2, Compound A 0.1 ppm alone",30.3%
same,% Inhibition (Observed),"[1]; Table 2, Compound A 0.2 ppm alone",39.3%
same,% Inhibition (Observed),"[1]; Table 2, Compound A 0.3 ppm alone",51.8%
same,% Inhibition (Observed),"[1]; Table 3, Compound A 0.1 ppm alone",29.0%
same,% Inhibition (Observed),"[1]; Table 3, Compound A 0.2 ppm alone",38.1%
same,% Inhibition (Observed),"[1]; Table 3, Compound A 0.3 ppm alone",47.4%
same,% Inhibition (Observed),"[1]; Table 4, Compound A 0.1 ppm alone",34.7%
same,% Inhibition (Observed),"[1]; Table 4, Compound A 0.2 ppm alone",44.5%
same,% Inhibition (Observed),"[1]; Table 4, Compound A 0.3 ppm alone",49.4%
"COCC(=O)N(c1c(C)cccc1C)N1CCOC1=O [Compound C, Oxadixyl, reference compound]",inhibition at 6.25 ppm,[1]; [3],30.3%
same,inhibition at 12.5 ppm,[1]; [3],41.3%
same,inhibition at 25 ppm,[1]; [3],50.8%
"Cc1cccc(C)c1N(C(=O)CCl)C1CCOC1=O (stereo not shown) [Compound D, Ofurace, reference compound]",inhibition at 12.5 ppm,"[1]; Phytophthora capsici, ATCC15399, Table 3, Compound D 12.5 ppm alone, read-out: % Inhibition (Observed)",52.1%
same,inhibition at 25 ppm,"[1]; Phytophthora capsici, ATCC15399, Table 3, Compound D 25 ppm alone, read-out: % Inhibition (Observed)",56%
"COC(=O)C(C)N(C(=O)Cc1ccccc1)c1c(C)cccc1C (stereo not shown) [Compound E, Benalaxyl, reference compound]",inhibition at 20 ppm,"[1]; Phytophthora capsici, ATCC15399, Table 4, Compound E 20 ppm alone, read-out: % Inhibition (Observed)",46.6%
